Earlier results on five compounds are cited in patent publication US20260007589A1, “METHOD FOR DYEING KERATINOUS MATERIAL COMPRISING THE USE OF AN ORGANOSILICON COMPOUND, AN EFFECT PIGMENT, AND A FILM-FORMING POLYMER III” (Henkel AG & Co. KGaA, priority 2019, published 2026).

The structures appear in SMILES notation. Where two headings read alike, the source gives them in different places.

In the case of `CCN(Cc1cccc(S(=O)(=O)[O-])c1)c1ccc(C(=C2C=CC(=[N+](CC)Cc3cccc(S(=O)(=O)[O-])c3)C=C2)c2ccccc2S(=O)(=O)[O-])cc1.[Na+].[Na+]` [Acid Blue 9], where the note is “25° C.”, the solubility in water entry is listed as “more than 20 % by weight”. As for `O=S(=O)([O-])c1ccc(N=Nc2c(O)ccc3ccccc23)cc1.[Na+]` [Acid Orange 7, sodium salt of 4-[(2-hydroxy-1-naphthyl)azo]benzene sulphonate], the solubility in water entry (25° C.) is on record as “more than 7 g/L”. On to `Nc1cc(S(=O)(=O)[O-])cc2cc(S(=O)(=O)[O-])c(N=Nc3ccccc3)c(O)c12.[Na+].[Na+]` [Acid Red 33, disodium salt of 5-amino-4-hydroxy-3-(phenylazo)-naphthalene-2,7-disulphonate], for which, where the note is “25° C.”, the solubility in water was 2.5 g/L. For the compound `O=C([O-])c1c(Cl)c(Cl)c(Cl)c(Cl)c1-c1c2c(Br)cc(=O)c(Br)c-2oc2c(Br)c(O)cc(Br)c12.O=C([O-])c1c(Cl)c(Cl)c(Cl)c(Cl)c1-c1c2c(Br)cc(=O)c(Br)c-2oc2c(Br)c(O)cc(Br)c12.[Na+].[Na+]` [Acid Red 92, disodium salt of 3,4,5,6-tetrachloro-2-(1,4,5,8-tetrabromo-6-hydroxy-3-oxoxanthen-9-yl)benzoic acid], the solubility in water result (25° C.) is given as “greater than 10 g/L”. Regarding `O=C([O-])C1=NN(c2ccc(S(=O)(=O)[O-])cc2)C(=O)C1N=Nc1ccc(S(=O)(=O)[O-])cc1.[Na+].[Na+].[Na+]` (centres unmarked) [Acid Yellow 23, trisodium salt of 4,5-dihydro-5-oxo-1-(4-sulfophenyl)-4-((4-sulfophenyl)azo)-1H-pyrazole-3-carboxylic acid], the “solubility in water” value (at 25° C.) is on record as “highly soluble in water”.
